Measured values as given in patent US20210361774A1, “DEGRADERS OF WILD-TYPE AND MUTANT FORMS OF LRRK2” (DANA-FARBER CANCER INSTITUTE, INC., priority 2018, published 2021).

Assays:
LRRK2 G2019S = target: T1, LRRK2 G2019S (Homo sapiens, UniProt Q5S007, G2019S); test: IC50 experiments, Invitrogen Adapta assay, LRRK2 G2019S; format: biochemical
T1 construct: purchased Invitrogen
Method: (§1) IC50 experiments were performed using Invitrogen™'s Adapta™ assay.

LRRK2 wt = target: T2, LRRK2 wt (Homo sapiens, UniProt Q5S007); test: IC50 experiments, Invitrogen Adapta assay, LRRK2 wt; format: biochemical
T2 construct: purchased Invitrogen
T2 sequence (Q5S007 whole entry): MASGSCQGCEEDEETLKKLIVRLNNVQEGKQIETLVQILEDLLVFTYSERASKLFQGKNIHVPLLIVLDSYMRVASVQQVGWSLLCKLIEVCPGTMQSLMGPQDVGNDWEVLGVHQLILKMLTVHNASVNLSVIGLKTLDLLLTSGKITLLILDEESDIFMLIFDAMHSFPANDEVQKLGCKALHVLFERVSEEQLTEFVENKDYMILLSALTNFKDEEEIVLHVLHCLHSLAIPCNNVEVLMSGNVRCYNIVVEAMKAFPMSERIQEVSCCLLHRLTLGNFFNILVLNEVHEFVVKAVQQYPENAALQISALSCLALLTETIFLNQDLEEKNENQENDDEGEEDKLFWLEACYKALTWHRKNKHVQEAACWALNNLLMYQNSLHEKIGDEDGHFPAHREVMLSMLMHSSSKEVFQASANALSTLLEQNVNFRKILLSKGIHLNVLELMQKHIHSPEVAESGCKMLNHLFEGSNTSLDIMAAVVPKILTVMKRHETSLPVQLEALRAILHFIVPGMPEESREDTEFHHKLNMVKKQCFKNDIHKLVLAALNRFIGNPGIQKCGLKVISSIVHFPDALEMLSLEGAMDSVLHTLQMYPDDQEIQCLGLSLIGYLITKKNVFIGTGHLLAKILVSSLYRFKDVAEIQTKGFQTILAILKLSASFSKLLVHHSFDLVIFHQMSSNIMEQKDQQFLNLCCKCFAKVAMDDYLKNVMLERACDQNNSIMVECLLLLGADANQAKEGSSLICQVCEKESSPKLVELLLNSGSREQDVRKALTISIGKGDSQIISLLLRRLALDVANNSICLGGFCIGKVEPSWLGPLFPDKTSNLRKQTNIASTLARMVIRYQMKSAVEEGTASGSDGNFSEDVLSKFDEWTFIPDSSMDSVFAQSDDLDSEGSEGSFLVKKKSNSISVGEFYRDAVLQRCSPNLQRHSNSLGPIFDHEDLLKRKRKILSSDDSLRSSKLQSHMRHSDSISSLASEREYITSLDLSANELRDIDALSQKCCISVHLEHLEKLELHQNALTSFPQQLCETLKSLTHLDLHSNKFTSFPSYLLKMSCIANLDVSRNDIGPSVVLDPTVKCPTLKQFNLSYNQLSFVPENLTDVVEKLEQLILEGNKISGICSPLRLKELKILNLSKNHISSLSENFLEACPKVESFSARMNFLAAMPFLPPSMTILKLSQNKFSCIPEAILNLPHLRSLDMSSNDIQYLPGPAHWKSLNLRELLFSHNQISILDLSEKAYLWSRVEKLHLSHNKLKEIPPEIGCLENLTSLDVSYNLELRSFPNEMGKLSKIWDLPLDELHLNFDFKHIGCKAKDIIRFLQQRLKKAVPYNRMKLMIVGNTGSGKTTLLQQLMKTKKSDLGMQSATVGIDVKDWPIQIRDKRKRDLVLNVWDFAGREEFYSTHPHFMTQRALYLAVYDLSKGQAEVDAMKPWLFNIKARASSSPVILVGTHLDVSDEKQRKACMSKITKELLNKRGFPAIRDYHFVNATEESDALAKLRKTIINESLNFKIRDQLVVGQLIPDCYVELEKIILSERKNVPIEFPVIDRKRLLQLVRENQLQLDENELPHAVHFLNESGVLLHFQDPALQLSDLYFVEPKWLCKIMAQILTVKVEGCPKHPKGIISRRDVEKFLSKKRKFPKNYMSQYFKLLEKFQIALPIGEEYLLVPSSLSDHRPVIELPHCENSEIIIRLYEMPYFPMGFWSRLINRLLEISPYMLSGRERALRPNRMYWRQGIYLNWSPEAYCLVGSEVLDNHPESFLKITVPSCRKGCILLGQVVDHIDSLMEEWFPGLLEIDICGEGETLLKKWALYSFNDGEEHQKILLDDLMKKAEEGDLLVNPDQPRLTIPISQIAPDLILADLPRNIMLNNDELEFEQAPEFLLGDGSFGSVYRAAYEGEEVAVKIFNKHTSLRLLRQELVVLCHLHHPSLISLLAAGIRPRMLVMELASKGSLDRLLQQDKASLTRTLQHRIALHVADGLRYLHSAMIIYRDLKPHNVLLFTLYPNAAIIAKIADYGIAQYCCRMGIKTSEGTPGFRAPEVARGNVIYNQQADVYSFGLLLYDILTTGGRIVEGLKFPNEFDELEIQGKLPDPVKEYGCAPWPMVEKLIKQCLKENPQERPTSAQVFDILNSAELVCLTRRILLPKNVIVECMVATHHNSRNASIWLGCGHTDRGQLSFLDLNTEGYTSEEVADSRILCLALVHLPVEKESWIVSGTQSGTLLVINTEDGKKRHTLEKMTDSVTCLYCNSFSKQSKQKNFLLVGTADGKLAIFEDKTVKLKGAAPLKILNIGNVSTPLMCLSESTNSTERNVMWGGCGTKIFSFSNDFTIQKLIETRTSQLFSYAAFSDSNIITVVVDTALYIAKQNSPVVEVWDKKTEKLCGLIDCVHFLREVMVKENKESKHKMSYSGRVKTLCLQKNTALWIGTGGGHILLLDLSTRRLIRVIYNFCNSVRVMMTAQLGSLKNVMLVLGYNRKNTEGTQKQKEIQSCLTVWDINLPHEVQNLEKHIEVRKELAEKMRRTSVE
Method: as §1

Rab10 (phospho T73) = test: Inhibition of phosphorylation of Rab10, Western blot in MEFs; format: cell-based, Mouse; conditions: for inhibition of phosphorylation of Rab10: Western blot, time course, 0 nM-1000 nM
Method: (§2) Cell lines used: Mouse embryonic fibroblast (MEF) WT, LRRK2 homozygous knock-ins in MEFs [R1441C; VPS35N(D620N); G2019S].
(§3) Tested concentration of LRRK2 degraders: 0 nM, 10 nM, 30 nM, 100 nM, 300 nM, 1000 nM. Additional concentrations tested for inventive compound 3: 2 uM, 5 uM and 10 uM.
(§4) Complete growth medium: DMEM supplemented with: 10% Fetal Bovine Serum; 1% pen/strep; 1% L-Glutamine; 1% MEM Non-essential Amino Acid Solution; 1% sodium pyruvate.
(§5) Commercial and in-house purified antibodies: • (a) Mouse anti-LRRK2/Dardarin antibody from Antibodies, Inc. (Cat #75-253). • (b) Rabbit monoclonal antibodies for total LRRK2 (UDD3) and pS935-LRRK2 (UDD2) were purified at the University of Dundee (as described in Dzamko et al., PLoS One 7(6): e39132 (2012). • (c) Loading controls: anti-α-tubulin (Cell Signaling Technology #5174); anti-GAPDH (Santa Cruz Biotechnology Cat. #sc-32233) • (d) (p)Rab10 antibodies: rabbit anti-RAB10 (phospho T73) antibody [MJF-R21] (ab230261); mouse MJFF-total Rab10 monoclonal antibody were generated by nanoTools (www.nanotools.de); rabbit Rab10 total was from Cell Signaling Technology (Rab10 (D36C4) XP® Rabbit mAb #8127)
(§6) Treatment: WT MEF, R1441C, VPS35N and G2019S mutants' cells were plated at equal density into 6-well plates in a final volume of 3 mL of complete growth medium/well. Degraders were reconstituted in DMSO and used at 1:1000 in cells i.e. 3 μl/3 ml. Treatment began when cells were >60% confluent, starting from a 48-hour time point, followed by a 24-hour time point, a 6-hour time point and finally a 1-hour time point.
(§7) Cell lysis: Media were aspirated, plates were placed on ice and cells were washed with Dulbecco's phosphate-buffered saline (DPBS). Fifty microliters of an ice-cold lysis buffer containing 50 mM Tris-HCl, pH 7.5, 1% (v/v) Triton X-100, 1 mM ethylene glycol-bis(μ-aminoethyl ether)-N,N,N′,N′-tetraacetic acid (EGTA), 1 mM sodium orthovanadate, 50 mM NaF, 0.1% (v/v) 2-mercaptoethanol, 10 mM 2-glycerophosphate, 5 mM sodium pyrophosphate, 0.1 μg/ml microcystin-LR (Enzo Life Sciences), 270 mM sucrose and complete EDTA-free protease inhibitor cocktail (Sigma-Aldrich Cat #11836170001) was added per well. Lysates were centrifuged at 20,817 g (14,000 rpm) for 15 min at 4° C. and supernatants were used to determine protein concentration using Bradford assay (Pierce™ Coomassie (Bradford) Protein Assay Kit, Thermo Scientific™ Cat #23200) and for Western blot analysis.
(§8) Western blot analysis: Cell lysates were mixed with 4× SDS-PAGE sample buffer [50 mM Tris-HCl, pH 6.8, 2% (w/v) SDS, 10% (v/v) glycerol, 0.02% (w/v) Bromophenol Blue and 1% (v/v) 2-mercaptoethanol] to a final total protein concentration of 1 μg/μl and heated at 95° C. for 5 minutes. Twenty micrograms of samples were loaded onto NuPAGE™ 4-12% Bis-Tris gradient gels (Life Technologies) along with 3 μl of BIO-RAD protein marker (Precision Plus Protein™ All Blue Prestained Protein Standards #1610373 kDa), gels were run in duplicates at 110V for 2 hours and 30 minutes with the NuPAGE™ MOPS SDS running buffer (Life Technologies, Cat #NP0001-02). After electrophoresis, the separated proteins were transferred onto the nitrocellulose membrane (GE Healthcare, Amersham Protran 0.45 μm NC) at 90 V for 90 minutes. Transferred membranes were briefly stained with Ponceau S stain and divided into 3 strips, as described earlier in Fan et al., Biochem. J. 475:23-44 (2018). Briefly, upper strip was cut from the top of the membrane to 75 kDa, middle strip cut was between 75 kDa—30 kDa and bottom strip cut was from 30 kDa—to the bottom of the membrane. Membrane strips were blocked at room temperature with 5% (w/v) dried skimmed milk dissolved in TBS-T [20 mM Tris-HCl, pH 7.5, 150 mM NaCl and 0.1% (v/v) Tween® 20] for 1 hour, washed four times with ten minutes intervals in TBS-T and incubated with primary antibodies diluted in 5% BSA (bovine serum albumin) in TBS-T overnight at 4° C. […]

LRRK2 = test: Cellular degradation of LRRK2, Western blot in MEFs; format: cell-based, Mouse; conditions: for degradation of LRRK2 (total level): Western blot, time course, 0 nM-1000 nM; for level of LRRK2 (degradation): after 48 hours (FIG. 18)
Method: as §2, §3, §4, §5, §6, §7, §8

LRRK2 pS935 = test: Inhibition of phosphorylation of S935, Western blot in MEFs; format: cell-based, Mouse; conditions: for inhibition of phosphorylation of S935: Western blot, time course, 0 nM-1000 nM
Method: as §2, §3, §4, §5, §6, §7, §8

[1] = target: T3, LRRK2 R1441C homozygous knock-in MEFs (Mus musculus, UniProt Q5S006, R1441C); test: Cellular degradation of LRRK2 in R1441C homozygous cells, Western blot; format: cell-based; conditions: R1441C homozygous cells (FIG. 3B), time course, 0 nM-1000 nM
T3 construct: endogenous in cells; host or cells: LRRK2 R1441C homozygous knock-in MEFs
T3 sequence (Q5S006 whole entry R1441C): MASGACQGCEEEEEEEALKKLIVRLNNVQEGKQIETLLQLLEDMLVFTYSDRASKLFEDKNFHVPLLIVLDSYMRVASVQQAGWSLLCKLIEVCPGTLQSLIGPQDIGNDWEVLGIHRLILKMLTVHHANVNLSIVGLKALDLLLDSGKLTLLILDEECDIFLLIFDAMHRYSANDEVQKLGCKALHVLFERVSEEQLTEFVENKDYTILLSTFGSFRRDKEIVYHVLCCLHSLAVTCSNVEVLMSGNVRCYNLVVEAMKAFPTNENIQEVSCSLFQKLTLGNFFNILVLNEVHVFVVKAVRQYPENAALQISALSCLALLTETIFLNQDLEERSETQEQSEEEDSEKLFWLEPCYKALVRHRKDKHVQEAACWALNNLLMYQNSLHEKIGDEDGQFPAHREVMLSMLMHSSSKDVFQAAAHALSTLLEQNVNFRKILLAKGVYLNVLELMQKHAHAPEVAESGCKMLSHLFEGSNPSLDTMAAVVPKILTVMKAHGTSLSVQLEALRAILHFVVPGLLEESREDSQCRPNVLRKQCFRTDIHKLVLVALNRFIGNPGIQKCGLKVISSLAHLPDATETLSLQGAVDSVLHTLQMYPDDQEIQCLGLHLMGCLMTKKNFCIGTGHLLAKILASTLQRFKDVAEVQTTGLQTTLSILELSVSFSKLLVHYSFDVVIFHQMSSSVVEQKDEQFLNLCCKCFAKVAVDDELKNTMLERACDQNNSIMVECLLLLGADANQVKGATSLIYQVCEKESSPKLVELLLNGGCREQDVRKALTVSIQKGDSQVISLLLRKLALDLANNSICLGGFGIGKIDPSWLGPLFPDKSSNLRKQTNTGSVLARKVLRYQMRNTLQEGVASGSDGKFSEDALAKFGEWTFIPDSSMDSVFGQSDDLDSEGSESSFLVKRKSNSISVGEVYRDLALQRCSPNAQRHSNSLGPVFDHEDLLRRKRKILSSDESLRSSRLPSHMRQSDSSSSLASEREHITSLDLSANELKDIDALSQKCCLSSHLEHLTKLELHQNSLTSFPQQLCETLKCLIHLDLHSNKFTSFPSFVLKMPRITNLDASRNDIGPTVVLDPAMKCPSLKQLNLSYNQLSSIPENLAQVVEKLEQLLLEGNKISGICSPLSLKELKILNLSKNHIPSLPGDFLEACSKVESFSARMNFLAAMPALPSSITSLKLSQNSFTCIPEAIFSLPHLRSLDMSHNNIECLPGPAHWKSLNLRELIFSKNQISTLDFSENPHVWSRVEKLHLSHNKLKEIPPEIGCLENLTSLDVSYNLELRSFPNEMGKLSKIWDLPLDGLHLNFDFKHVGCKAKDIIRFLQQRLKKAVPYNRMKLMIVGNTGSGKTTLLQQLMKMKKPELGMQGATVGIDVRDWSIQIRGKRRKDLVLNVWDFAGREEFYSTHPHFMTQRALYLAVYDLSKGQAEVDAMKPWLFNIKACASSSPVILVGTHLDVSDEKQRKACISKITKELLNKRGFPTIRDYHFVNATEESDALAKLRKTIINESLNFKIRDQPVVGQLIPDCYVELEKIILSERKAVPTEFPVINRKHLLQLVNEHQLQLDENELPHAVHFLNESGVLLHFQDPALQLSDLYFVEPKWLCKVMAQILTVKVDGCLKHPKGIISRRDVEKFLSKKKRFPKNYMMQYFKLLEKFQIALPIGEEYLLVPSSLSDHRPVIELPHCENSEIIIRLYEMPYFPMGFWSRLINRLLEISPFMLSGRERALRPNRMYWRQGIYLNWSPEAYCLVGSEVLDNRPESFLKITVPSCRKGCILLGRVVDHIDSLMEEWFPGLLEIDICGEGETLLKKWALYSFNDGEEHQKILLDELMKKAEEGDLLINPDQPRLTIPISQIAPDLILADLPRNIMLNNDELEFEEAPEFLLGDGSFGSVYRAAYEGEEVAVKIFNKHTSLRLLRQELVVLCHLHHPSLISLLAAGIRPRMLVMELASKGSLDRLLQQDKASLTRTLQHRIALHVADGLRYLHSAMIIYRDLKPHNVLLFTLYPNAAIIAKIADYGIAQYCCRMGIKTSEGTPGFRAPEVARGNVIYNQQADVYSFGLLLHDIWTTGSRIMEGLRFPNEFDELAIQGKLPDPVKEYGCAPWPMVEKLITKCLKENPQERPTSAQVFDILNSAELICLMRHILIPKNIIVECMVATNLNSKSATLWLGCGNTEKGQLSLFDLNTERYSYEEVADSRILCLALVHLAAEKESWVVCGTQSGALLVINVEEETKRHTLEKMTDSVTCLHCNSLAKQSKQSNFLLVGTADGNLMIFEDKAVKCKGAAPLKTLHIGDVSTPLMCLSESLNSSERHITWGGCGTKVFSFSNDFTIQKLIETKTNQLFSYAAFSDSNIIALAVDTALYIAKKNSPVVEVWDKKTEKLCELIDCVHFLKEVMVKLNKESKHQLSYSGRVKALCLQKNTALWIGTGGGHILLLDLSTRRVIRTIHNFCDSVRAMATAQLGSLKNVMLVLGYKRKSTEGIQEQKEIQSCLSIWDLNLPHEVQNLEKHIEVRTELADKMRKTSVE
Method: as §2, §3, §4, §5
Treatment: WT MEF, R1441C, VPS35N and G2019S mutants' cells were plated at equal density into 6-well plates in a final volume of 3 mL of complete growth medium/well. Degraders were reconstituted in DMSO and used at 1:1000 in cells i.e. 3 μl/3 ml. […]

T1 sequence (Q5S007 whole entry G2019S): as the sequence (Q5S007 whole entry) above, with G2019S counted along it

| IC50 (LRRK2 G2019S) [nM] | IC50 (LRRK2 wt) [nM] | degradation of LRRK2 (C-terminus) [1] | SMILES | inhibition of phosphorylation of Rab10 (Rab10 (phospho T73)) | degradation of LRRK2 (total level) (LRRK2) | inhibition of phosphorylation of S935 (LRRK2 pS935) | level of LRRK2 (degradation) (LRRK2) | inhibition of pRAB10 (Rab10 (phospho T73); after 48 hours (FIG. 18)) | inhibition of pS935 (LRRK2 pS935; after 48 hours (FIG. 18)) |
| --- | --- | --- | --- | --- | --- | --- | --- | --- | --- |
| 2 | 4 |  | CNc1nc(Nc2ccc(C(=O)N3CCN(C(=O)CCOCCOCCOCCOCCNc4cccc5c4C(=O)N(C4CCC(=O)NC4=O)C5=O)CC3)cc2OC)ncc1C(F)(F)F (stereo not shown) [Compound 1] | inhibited | did not degrade | inhibited |  |  |  |
| 1 | 2 |  | CNc1nc(Nc2ccc(C(=O)N3CCN(C(=O)CCOCCOCCNc4cccc5c4C(=O)N(C4CCC(=O)NC4=O)C5=O)CC3)cc2OC)ncc1C(F)(F)F (stereo not shown) [Compound 2] | inhibited | did not degrade | inhibited |  |  |  |
| 1 | 2 | observed | CNc1nc(Nc2ccc(C(=O)N3CCN(C(=O)CCCCCCCCOc4cccc5c4C(=O)N(C4CCC(=O)NC4=O)C5=O)CC3)cc2OC)ncc1C(F)(F)F (stereo not shown) [Compound 3, 2-(2,6-dioxopiperidin-3-yl)-4-((9-(4-(3-methoxy-4-((4-(methylamino)-5-(trifluoromethyl)pyrimidin-2-yl)amino)benzoyl)piperazin-1-yl)-9-oxononyl)oxy)isoindoline-1,3-dione] | inhibited | did not degrade | inhibited |  |  |  |
|  |  |  | CNc1nc(Nc2ccc(C(=O)N3CCN(CCOCCOCCOCCNc4cccc5c4C(=O)N(C4CCC(=O)NC4=O)C5=O)CC3)cc2OC)ncc1C(F)(F)F (stereo not shown) [Compound 5] | inhibited | did not degrade | inhibited |  |  |  |
| 1.13 | 1.24 |  | CC1(Oc2ccc3[nH]nc(-c4cc(N5CCN(C(=O)CCOCCOCCNc6cccc7c6C(=O)N(C6CCC(=O)NC6=O)C7=O)CC5)ncn4)c3c2)CC1 (stereo not shown) [Compound 8, 2-(2,6-dioxopiperidin-3-yl)-4-((2-(2-(3-(4-(6-(5-(1-methylcyclopropoxy)-1H-indazol-3-yl)pyrimidin-4-yl)piperazin-1-yl)-3-oxopropoxy)ethoxy)ethyl)amino)isoindoline-1,3-dione] |  | decreased | inhibited | degraded |  |  |
| 0.98 | 1.46 |  | CC1(Oc2ccc3[nH]nc(-c4cc(N5CCN(C(=O)CCOCCOCCOCCOCCNc6cccc7c6C(=O)N(C6CCC(=O)NC6=O)C7=O)CC5)ncn4)c3c2)CC1 (stereo not shown) [Compound 9] |  | decreased | inhibited |  |  |  |
| 1.08 | 1.59 |  | CC1(Oc2ccc3[nH]nc(-c4cc(N5CCN(C(=O)CCOCCNc6cccc7c6C(=O)N(C6CCC(=O)NC6=O)C7=O)CC5)ncn4)c3c2)CC1 (stereo not shown) [Compound 10, 2-(2,6-dioxopiperidin-3-yl)-4-((2-(3-(4-(6-(5-(1-methylcyclopropoxy)-1H-indazol-3-yl)pyrimidin-4-yl)piperazin-1-yl)-3-oxopropoxy)ethyl)amino)isoindoline-1,3-dione] |  | Less degradation | inhibited |  |  |  |
| 1.47 | 2.5 |  | CC1(Oc2ccc3[nH]nc(-c4cc(N5CCN(C(=O)CCOCCNc6cccc7c6C(=O)N(C6CCC(=O)NC6=O)C7)CC5)ncn4)c3c2)CC1 (stereo not shown) [Compound 11, 3-(7-((2-(3-(4-(6-(5-(1-methylcyclopropoxy)-1H-indazol-3-yl)pyrimidin-4-yl)piperazin-1-yl)-3-oxopropoxy)ethyl)amino)-1-oxoisoindolin-2-yl)piperidine-2,6-dione] |  | Some degradation | inhibits |  |  |  |
| 2.24 | 2.58 |  | CC1(Oc2ccc3[nH]nc(-c4cc(N5CCN(C(=O)CCOCCOCCNc6cccc7c6C(=O)N(C6CCC(=O)NC6=O)C7)CC5)ncn4)c3c2)CC1 (stereo not shown) [Compound 12, 3-(7-((2-(2-(3-(4-(6-(5-(1-methylcyclopropoxy)-1H-indazol-3-yl)pyrimidin-4-yl)piperazin-1-yl)-3-oxopropoxy)ethoxy)ethyl)amino)-1-oxoisoindolin-2-yl)piperidine-2,6-dione] |  | Minor degradation | inhibited |  |  |  |
| 3.16 | 3.14 |  | CC1(Oc2ccc3[nH]nc(-c4cc(N5CCN(C(=O)CCOCCOCCOCCOCCNc6cccc7c6C(=O)N(C6CCC(=O)NC6=O)C7)CC5)ncn4)c3c2)CC1 (stereo not shown) [Compound 13] |  | Some degradation | inhibited |  |  |  |
|  |  |  | Cc1ncsc1-c1ccc([C@@H](C)NC(=O)[C@H]2C[C@H](O)CN2C(=O)[C@H](NC(=O)CCOCCOCCOCCC(=O)N2CCN(c3cc(-c4n[nH]c5ccc(OC6(C)CC6)cc45)ncn3)CC2)C(C)(C)C)cc1 [Compound 14, (2R,4S)-1-((R)-2-(tert-butyl)-16-(4-(6-(5-(1-methylcyclopropoxy)-1H-indazol-3-yl)pyrimidin-4-yl)piperazin-1-yl)-4,16-dioxo-7,10,13-trioxa-3-azahexadecanoyl)-4-hydroxy-N—((R)-1-(4-(4-methylthiazol-5-yl)phenyl)ethyl)pyrrolidine-2-carboxamide] | inhibited | No degradation | inhibited |  |  |  |
|  |  |  | Cc1ncsc1-c1ccc([C@H](C)NC(=O)[C@@H]2C[C@@H](O)CN2C(=O)[C@@H](NC(=O)CCOCCOCCOCCOCCC(=O)N2CCN(c3cc(-c4n[nH]c5ccc(OC6(C)CC6)cc45)ncn3)CC2)C(C)(C)C)cc1 [Compound 15] | inhibited | No degradation | inhibited |  |  |  |
|  |  |  | CC1(Oc2ccc3[nH]nc(-c4cc(N5CCN(C(=O)CCOCCOCCNc6cccc7c6C(=O)N(C6CCCNC6=O)C7=O)CC5)ncn4)c3c2)CC1 (stereo not shown) [Compound 16] |  |  |  | did not reduce | potently inhibited | potently inhibited |
|  |  |  | CN1CCN(c2cc(-c3n[nH]c4ccc(OC5(C)CC5)cc34)ncn2)CC1 [MLi-2 analog, 5-(1-methylcyclopropyl)oxy-3-[6-(4-methylpiperazin-1-yl)pyrimidin-4-yl]-1H-indazole, reference compound] |  | did not decrease | inhibits |  |  |  |
